The values below come from the supplement of paper PMC10307832.

Common to all, as to assay: relative viability (nuclei count vs DMSO), 5 days (fraction); higher = more cells survive
Compound in experiment [1]: CCOC(=O)CCNc1cc(N2CCc3ccccc3CC2)nc(-c2ccccn2)n1 [GSK-J4] + COc1cccc2cc(-c3nc([C@H]4CC[C@H](C(=O)O)CC4)n4ncnc(N)c34)[nH]c12 [OSI-027] (partner 0.5 µM)
Put shortly: (§1)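 Lung cancer cell lines were seeded in 1536-well plates and dosed by pin tool the next day, with either a single drug or a fixed anchor-drug dose combined with five library-drug doses (not always all listed) spaced in √10 steps. Five days later, one step fixed the cells and stained their nuclei (final 0.05% Triton X-100, 1% formaldehyde, 1 ug/ml Hoechst), and nuclei were counted on 4× images. Relative viability is the nuclei count in treated wells divided by the count in vehicle wells, and each value is the median of duplicate plates.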

Compound in experiment [2]: CN1CCC(CC1)OC2=CC(=C(C=C2)NC3=NC=C4C(=N3)N(C(=O)N4C)C5CCCC5)OC [AZ3146] + Cc1nc(NC(=O)N2CCC[C@H]2C(N)=O)sc1-c1ccnc(C(C)(C)C(F)(F)F)c1 [Alpelisib] (partner 2 µM)
A digest of the protocol: as §1

Compound in experiment [3]: CCOC(=O)CCNc1cc(N2CCc3ccccc3CC2)nc(-c2ccccn2)n1 [GSK-J4] + NC(=O)Nc1cc(-c2cccc(F)c2)sc1C(=O)N[C@H]1CCCNC1 [AZD7762] (partner 0.2 µM)
Put shortly:
as §1

Compound in experiment [4]: CCOC(=O)CCNc1cc(N2CCc3ccccc3CC2)nc(-c2ccccn2)n1 [GSK-J4] + Cc1cc(Nc2cc(N3CCN(C)CC3)nc(Sc3ccc(NC(=O)C4CC4)cc3)n2)n[nH]1 [Tozasertib] (partner 0.1 µM)
A digest of the protocol: as §1

On to NCI-H1395, for which the relative viability in experiment [1] (first compound 0.5 µM) was found to be 0.65; in experiment [1] (first compound 1.581 µM), 0.641; in experiment [1] (first compound 5 µM), 0.515; in experiment [1] (first compound 15.81 µM), 0.591; in experiment [1] (first compound 50 µM), 0.569; in experiment [2] (first compound 0.08 µM) it was 1.08. The relative viability in experiment [2] (first compound 0.253 µM) amounted to 1.18; in experiment [2] (first compound 0.8 µM), 0.998; in experiment [2] (first compound 2.53 µM), 0.994; in experiment [2] (first compound 8 µM), 1.26; in experiment [3] (first compound 0.5 µM), 0.403; in experiment [3] (first compound 1.581 µM), 0.415. The relative viability in experiment [3] (first compound 5 µM) is 0.409; in experiment [3] (first compound 15.81 µM), 0.351; in experiment [3] (first compound 50 µM), 0.413; in experiment [4] (first compound 0.5 µM), 0.806; in experiment [4] (first compound 1.581 µM), 0.864; in experiment [4] (first compound 5 µM) it was 0.728. Besides, the relative viability in experiment [4] (first compound 15.81 µM) turned out to be 0.687; in experiment [4] (first compound 50 µM) it was 0.614.
For the cell line LCLC-103H, the relative viability in experiment [1] (first compound 0.5 µM) was determined as 0.438; in experiment [1] (first compound 1.581 µM), 0.325; in experiment [1] (first compound 5 µM), 0.379; in experiment [1] (first compound 15.81 µM), 0.432; in experiment [1] (first compound 50 µM), 0.326; in experiment [2] (first compound 0.08 µM), 0.985. Further, the relative viability was 0.886 in experiment [2] (first compound 0.253 µM); 0.859 in experiment [2] (first compound 0.8 µM); 1.03 in experiment [2] (first compound 2.53 µM); 0.99 in experiment [2] (first compound 8 µM); 0.811 in experiment [3] (first compound 0.5 µM); 0.76 in experiment [3] (first compound 1.581 µM). Besides, the relative viability in experiment [3] (first compound 5 µM) is 0.525; in experiment [3] (first compound 15.81 µM), 0.69; in experiment [3] (first compound 50 µM), 0.65; in experiment [4] (first compound 0.5 µM), 0.515; in experiment [4] (first compound 1.581 µM), 0.434; in experiment [4] (first compound 5 µM), 0.526. For the same cell line, the relative viability in experiment [4] (first compound 15.81 µM) stood at 0.444; in experiment [4] (first compound 50 µM), 0.332.
Regarding PC-3 [JPC-3], the relative viability in experiment [1] (first compound 0.5 µM) turned out to be 0.71; in experiment [1] (first compound 1.581 µM), 0.65; in experiment [1] (first compound 5 µM), 0.737; in experiment [1] (first compound 15.81 µM), 0.585; in experiment [1] (first compound 50 µM), 0.732; in experiment [2] (first compound 0.08 µM), 0.914. For the same cell line, the relative viability was found to be 1.01 in experiment [2] (first compound 0.253 µM); 1.02 in experiment [2] (first compound 0.8 µM); 1.08 in experiment [2] (first compound 2.53 µM); 1.07 in experiment [2] (first compound 8 µM); 1.04 in experiment [3] (first compound 0.5 µM); 0.55 in experiment [3] (first compound 1.581 µM). In addition, the relative viability in experiment [3] (first compound 5 µM) turned out to be 0.932; in experiment [3] (first compound 15.81 µM), 0.748; in experiment [3] (first compound 50 µM), 0.555; in experiment [4] (first compound 0.5 µM), 0.838; in experiment [4] (first compound 1.581 µM) it was 0.824; in experiment [4] (first compound 5 µM) it was 0.883. In addition, the relative viability in experiment [4] (first compound 15.81 µM) stood at 0.815; in experiment [4] (first compound 50 µM) it was 0.702.
EKVX: the relative viability in experiment [1] (first compound 0.5 µM) stood at 0.673; in experiment [1] (first compound 1.581 µM) it was 0.412; in experiment [1] (first compound 5 µM), 0.619; in experiment [1] (first compound 15.81 µM) it was 0.6; in experiment [1] (first compound 50 µM), 0.567; in experiment [2] (first compound 0.08 µM), 0.865. For the same cell line, the relative viability in experiment [2] (first compound 0.253 µM) came out at 0.802; in experiment [2] (first compound 0.8 µM), 0.716; in experiment [2] (first compound 2.53 µM), 0.981; in experiment [2] (first compound 8 µM), 1; in experiment [3] (first compound 0.5 µM) it was 0.714; in experiment [3] (first compound 5 µM), 0.732. Moreover, the relative viability in experiment [3] (first compound 15.81 µM) amounted to 0.669; in experiment [3] (first compound 50 µM) it was 0.535; in experiment [4] (first compound 0.5 µM), 0.379; in experiment [4] (first compound 1.581 µM), 0.213; in experiment [4] (first compound 5 µM), 0.406; in experiment [4] (first compound 15.81 µM) it was 0.346. In addition, in experiment [4] (first compound 50 µM), the relative viability was 0.334.
